In US12411143B2, “CD146 and uses thereof as a biomarker and as a therapeutic target in the diagnosis and treatment of fibrosis” (ASSISTANCE PUBLIQUE HÔPITAUX DE MARSEILLE, priority 2018, dated 2025):
Entries after “also recorded” stand apart in the source; their conditions may differ.

Assays:
Format in all cases: cell-based
[1] = system: Human cardiac fibroblasts (HCFs); assay: Cell proliferation of human cardiac fibroblasts (BrdU assay)
Experimental: (§1) Human cardiac fibroblasts (HCFs) (PromoCell) are grown in Fibroblast Growth Medium 3 Supplement Pack (PromoCell) in an environment at 37° C. with controlled atmosphere. The HCFs are grown between passages 3 and 7.
(§2) To perform the stimulations, the fibroblasts are seeded at a density of 30 000 cells/cm^2 in complete culture medium. After 24 hours of adhesion, the cell culture medium is replaced with medium not containing growth factor (minimal medium) for 4 hours.
This medium is then replaced with minimal medium supplemented with 25, 50, 75 or 100 ng/mL of CD146s or with 2.5, 5 or 10 ng/mL of TGF-β for the proliferation study.
Cell proliferation is determined using a proliferation kit (BrdU Assay, Roche). An anti-BrdU antibody diluted 1/100 in its diluent solution is incubated for 90 minutes at 37° C. After removal and rinsing of excess antibody, a second antibody directed specifically against anti-BrdU and coupled to peroxidase is incubated for 30 minutes at room temperature and then removed. Detection is performed by the addition of 100 μL of enzyme substrate. […] Staining intensity, proportional to BrdU incorporation, is read on a spectrophotometer at 450 nm. The results are calculated by subtracting the background noise observed in a culture well containing no cells but having received the same amount of BrdU. Percentage of proliferation is then calculated for each condition. […]

[2] = system: Human cardiac fibroblasts (HCFs); assay: Myofibroblast marker expression in human cardiac fibroblasts (RT-PCR, western blot, immunofluorescence)
Experimental: as §1, §2
Total mRNA is extracted using a purification kit (RNeasy Mini, Qiagen) then eluted in 30 μL of RNase-free water. The amount of RNA is measured at 260 nm using a spectrophotometer (NanoDrop). The RNA is then converted to cDNA using 200 ng of RNA and according to the same protocol as the tissue RNA. The gene expression study is performed by real-time PCR from 10 ng of cDNA (Table 4).
The cells are lysed at 4° C. in a buffer composed of 10 mMTris-HCl (pH 8), 1 mM EDTA, 150 mMNaCl, 10% NP40, containing a protease inhibitor cocktail (Pierce, Thermo Scientific). The cell lysate obtained is centrifuged at 4° C. and 15000 g for 10 minutes. The supernatant containing solubilized proteins is collected and the amount of proteins determined using a calibration curve of bovine serum albumin (BSA) prepared from a 1 mg/mL BSA solution diluted in the lysis buffer used during sample preparation.
The samples are then used in western blot experiments. To that end, an aliquot containing 30 μg of proteins is taken up in 4× Laemmli buffer containing a reducing agent (Invitrogen) and then heated for 10 minutes at 75° C. before being deposited on an electrophoresis gel (NuPAGE 4-12% Bis-Tris Gel, Invitrogen). After migration of the samples, the proteins are dry-transferred to a nitrocellulose membrane (iBlot 2, Invitrogen). The membrane is blocked for 45 minutes with a Tris buffer containing 0.1% Tween 20 (TBS-T) and 4% BSA. The primary antibody (Table 5) diluted in TBS-T is hybridized for 12 hours at 4° C. and then rinsed for 3×10 minutes with TBS-T. The HRP-coupled secondary antibody (TBS-T) is hybridized for 1 hour. After rinsing, HRP activity is detected using a chemiluminescent substrate (ECL, Pierce). An antibody directed against a normalizing protein (β-tubulin), the expression of which is not modified by the experimental conditions, makes it possible to normalize the quantification and then to express the results semi-quantitatively (% control). Emitted light is captured with a camera (G:BOX). The proteins of interest are visualized as black bands on a white background. The signal thus obtained is quantified by densitometry (Image Lab Software version 4.1) (Table 5).
The cells are fixed for 5 minutes in 70° ethanol at 4° C. and then rinsed with PBS. After 1 hour of blocking in a PBS solution containing 5% BSA, the primary antibody (anti-α-SMA, Dako-0851) diluted 1/50 and then the secondary antibody (anti-mouse antibody) coupled to a fluorescent molecule (Alexa Fluor 488) are incubated for 1.5 hours. Rinses with PBS are performed between each step. The cells are mounted in an aqueous medium containing a nuclear stain (ProLongMountant with DAPI, Invitrogen) before being observed under a fluorescence microscope.
Modulation of α-SMA expression was examined in response to stimulation of HCFs by 50 ng/mL of CD146 for 48 hours.

miR21 = assay: In vitro induction of miR21

Substance: sCD146: recombinant human soluble form of CD146 corresponding to the shed sCD146, obtained from Biocytex
- cell proliferation of cardiac fibroblasts ([1]; 25, 50, 75 or 100 ng/mL of CD146s): significant, dose-dependent increase in cell proliferation
- amount giving the maximum pro-proliferative effect ([1]; HCFs): 50 ng/mL
- α-SMA network (indirect immunofluorescence) ([2]; 50 ng/mL): establishment of a smooth muscle actin network
- CD146 expression ([2]; 50 ng/mL of CD146s, first results n=2): 2 fold
- α-SMA protein expression level (western blot) ([2]; 50 ng/mL, 48 hours): 2.5 fold
- α-SMA RNA expression level (overexpression) ([2]; 50 ng/mL, 48 hours, n=4): 2.5 fold
- TGF-β expression at the RNA level ([2]; HCFs stimulated by CD146s, preliminary): increase in TGF-β expression; also recorded: able to increase TGF-β expression
- expression of RNAs encoding fibronectin and type I collagen ([2]; semiquantitative RT-PCR, comparable to TGF-β stimulation): increase in synthesis of fibronectin and of type I collagen
- miR21 induction (miR21): significantly induces in vitro miR21
